Target: T1, NHE3 (Homo sapiens, UniProt P48764)
T1 construct: expressed in transfected cells
T1 sequence (P48764 26-834): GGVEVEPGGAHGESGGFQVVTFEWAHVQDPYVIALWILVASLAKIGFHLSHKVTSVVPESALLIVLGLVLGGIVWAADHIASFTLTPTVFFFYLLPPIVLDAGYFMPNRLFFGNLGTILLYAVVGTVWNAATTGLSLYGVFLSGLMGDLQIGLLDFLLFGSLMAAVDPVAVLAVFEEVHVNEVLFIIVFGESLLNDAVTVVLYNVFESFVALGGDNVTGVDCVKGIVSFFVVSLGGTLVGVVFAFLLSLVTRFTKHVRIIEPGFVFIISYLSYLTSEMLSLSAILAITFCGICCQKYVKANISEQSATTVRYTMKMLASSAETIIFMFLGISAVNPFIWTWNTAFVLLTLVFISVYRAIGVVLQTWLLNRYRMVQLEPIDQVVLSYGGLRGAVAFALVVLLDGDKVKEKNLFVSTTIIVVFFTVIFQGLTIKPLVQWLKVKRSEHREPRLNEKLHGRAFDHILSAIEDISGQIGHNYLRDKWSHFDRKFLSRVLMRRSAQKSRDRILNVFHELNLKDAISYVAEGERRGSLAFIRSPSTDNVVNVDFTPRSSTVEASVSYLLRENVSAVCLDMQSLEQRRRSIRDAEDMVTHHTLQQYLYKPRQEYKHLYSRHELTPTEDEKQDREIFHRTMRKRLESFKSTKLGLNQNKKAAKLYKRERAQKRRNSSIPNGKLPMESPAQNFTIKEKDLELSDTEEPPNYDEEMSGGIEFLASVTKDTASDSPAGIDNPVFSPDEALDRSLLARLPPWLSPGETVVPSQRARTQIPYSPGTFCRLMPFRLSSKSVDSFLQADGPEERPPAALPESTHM
T1 sequence (Q99653 2-195 partner limits assumed): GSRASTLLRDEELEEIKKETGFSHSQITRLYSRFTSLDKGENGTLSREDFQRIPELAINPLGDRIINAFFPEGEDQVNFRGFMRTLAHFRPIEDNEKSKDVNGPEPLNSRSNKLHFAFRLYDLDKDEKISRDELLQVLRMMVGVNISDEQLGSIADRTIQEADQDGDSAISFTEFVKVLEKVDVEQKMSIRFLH
Assay: Cell-based assay of NHE-3 activity (pre-incubation inhibition), human
Settings: human Preincubation; for pIC50: 0-30 μM test compound
Summary of the method: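 Activity read as initial rate of BCECF fluorescence ratio change per minute (ex 439/505, em 538 nm) following NH4Cl prepulse acid loading. Compound (0–30 μM) present during 10 min Na+-free acidification at room temperature; cells were PS120 fibroblasts stably co-expressing human NHE3 and NHERF2.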

Row | Compound | % inhibition | pIC50
1 | 3-[2-(2-[2-[(4-[[(1S,2S)-4,6-Dichloro-2-[(3R)-3-[methyl(propan-2-yl)amino]piperidin-1-yl]-2,3-dihydro-1H-inden-1-yl]oxy]benzene) sulfonamido]ethoxy]ethoxy)ethyl]-1-[4-([[2-(2-[2-[(4-[[(1S,2S)-4,6-dichloro-2-[(3R)-3-[methyl(propan-2-yl)amino]piperidin-1-yl]-2,3-dihydro-1H-inden-1-yl]oxy]benzene)sulfonamido]ethoxy]ethoxy)ethyl]carbamoyl]amino)butyl]urea; bis(trifluoroacetic acid) [Example 78] | C (>70%) | –
2 | CN(C)[C@H]1Cc2c(Cl)cc(Cl)cc2[C@@H]1Oc1ccc(S(=O)(=O)NCCOCCOCCNC(=O)NCCCCNC(=O)NCCOCCOCCNS(=O)(=O)c2ccc(O[C@H]3c4cc(Cl)cc(Cl)c4C[C@@H]3N(C)C)c(F)c2)cc1F [Example 23, 3-[2-(2-[2-[(4-[[(1S,2S)-4,6-Dichloro-2-(dimethylamino)-2,3-dihydro-1H-inden-1-yl]oxy]-3-fluorobenzene)sulfonamido]ethoxy]ethoxy)ethyl]-1-[4-([[2-(2-[2-[(4-[[(1S,2S)-4,6-dichloro-2-(dimethylamino)-2,3-dihydro-1H-inden-1-yl]oxy]-3-fluorobenzene)sulfonamido]ethoxy]ethoxy)ethyl]carbamoyl]amino)butyl]urea; bis(trifluoroacetic acid)] | C (>70%) | C (NHE3 pIC50 > 7)
3 | Cc1cc(S(=O)(=O)NCCOCCOCCNC(=O)NCCCCNC(=O)NCCOCCOCCNS(=O)(=O)c2ccc(O[C@H]3c4cc(Cl)cc(Cl)c4C[C@@H]3N3CCC[C@@H](N(C)C)C3)c(C)c2)ccc1O[C@H]1c2cc(Cl)cc(Cl)c2C[C@@H]1N1CCC[C@@H](N(C)C)C1 [Example 26, 3-[2-(2-[2-[(4-[[(1S,2S)-4,6-Dichloro-2-[(3R)-3-(dimethylamino)piperidin-1-yl]-2,3-dihydro-1H-inden-1-yl]oxy]-3-methylbenzene)sulfonamido]ethoxy]ethoxy)ethyl]-1-[4-([[2-(2-[2-[4-[[(1S,2S)-4,6-dichloro-2-[(3R)-3-(dimethylamino)piperidin-1-yl]-2,3-dihydro-1H-inden-1-yl]oxy]-3-methylbenzenesulfonamido]ethoxy]ethoxy)ethyl]carbamoyl]amino)butyl]urea; bis(trifluoroacetic acid)] | C (>70%) | –
4 | Cc1cc(Cl)cc2c1C[C@H](N1CCC[C@@H](N(C)C)C1)[C@H]2Oc1ccc(S(=O)(=O)NCCOCCOCCNC(=O)NCCCCNC(=O)NCCOCCOCCNS(=O)(=O)c2ccc(O[C@H]3c4cc(Cl)cc(C)c4C[C@@H]3N3CCC[C@@H](N(C)C)C3)cc2)cc1 [Example 28, 3-[2-(2-[2-[(4-[[(1S,2S)-6-Chloro-2-[(3R)-3-(dimethylamino)piperidin-1-yl]-4-methyl-2,3-dihydro-1H-inden-1-yl]oxy]benzene)sulfonamido]ethoxy]ethoxy)ethyl]-1-[4-([[2-(2-[2-[(4-[[(1S,2S)-6-chloro-2-[(3R)-3-(dimethylamino)piperidin-1-yl]-4-methyl-2,3-dihydro-1H-inden-1-yl]oxy]benzene)sulfonamido]ethoxy]ethoxy)ethyl]carbamoyl]amino)butyl]urea; bis(trifluoroacetic acid)] | C (>70%) | C (NHE3 pIC50 > 7)
5 | Cc1cc(S(=O)(=O)NCCOCCOCCNC(=O)NCCCCNC(=O)NCCOCCOCCNS(=O)(=O)c2ccc(O[C@H]3c4cc(Cl)cc(C)c4C[C@@H]3N3CCC[C@@H](N(C)C)C3)c(C)c2)ccc1O[C@H]1c2cc(Cl)cc(C)c2C[C@@H]1N1CCC[C@@H](N(C)C)C1 [Example 29] | C (>70%) | C (NHE3 pIC50 > 7)
6 | Cc1cc(Cl)cc2c1C[C@H](N1CCNCC1)[C@H]2Oc1ccc(S(=O)(=O)NCCOCCOCCNC(=O)NCCCCNC(=O)NCCOCCOCCNS(=O)(=O)c2ccc(O[C@H]3c4cc(Cl)cc(C)c4C[C@@H]3N3CCNCC3)cc2)cc1 [Example 34, 3-[2-(2-[2-[(4-[[(1S,2S)-6-Chloro-4-methyl-2-(piperazin-1-yl)-2,3-dihydro-1H-inden-1-yl]oxy]benzene)sulfonamido]ethoxy]ethoxy)ethyl]-1-[4-([[2-(2-[2-[(4-[[(1S,2S)-6-chloro-4-methyl-2-(piperazin-1-yl)-2,3-dihydro-1H-inden-1-yl]oxy]benzene)sulfonamido]ethoxy]ethyl)ethyl]carbamoyl]amino)butyl]urea; bis(trifluoroacetic acid)] | C (>70%) | –
7 | Cc1cc(S(=O)(=O)NCCOCCOCCNC(=O)NCCCCNC(=O)NCCOCCOCCNS(=O)(=O)c2ccc(O[C@H]3c4cc(Cl)cc(C)c4C[C@@H]3N3CCNCC3)c(C)c2)ccc1O[C@H]1c2cc(Cl)cc(C)c2C[C@@H]1N1CCNCC1 [Example 35, 3-[2-(2-[2-[(4-[[(1S,2S)-6-Chloro-4-methyl-2-(piperazin-1-yl)-2,3-dihydro-1H-inden-1-yl]oxy]-3-methylbenzene)sulfonamido]ethoxy]ethoxy)ethyl]-1-[4-([[2-(2-[2-[(4-[[(1S,2S)-6-chloro-4-methyl-2-(piperazin-1-yl)-2,3-dihydro-1H-inden-1-yl]oxy]-3-methylbenzene)sulfonamido]ethoxy]ethoxy)ethyl]carbamoyl]amino)butyl]urea; bis(trifluoroacetic acid)] | C (>70%) | C (NHE3 pIC50 > 7)
8 | Cc1cc(Cl)cc2c1C[C@H](N1CCNCC1)[C@H]2Oc1ccc(S(=O)(=O)NCCOCCOCCNC(=O)NCCCCNC(=O)NCCOCCOCCNS(=O)(=O)c2ccc(O[C@H]3c4cc(Cl)cc(C)c4C[C@@H]3N3CCNCC3)c(F)c2)cc1F [Example 36, 3-[2-(2-[2-[(4-[[(1S,2S)-6-Chloro-4-methyl-2-(piperazin-1-yl)-2,3-dihydro-1H-inden-1-yl]oxy]-3-fluorobenzene)sulfonamido]ethoxy]ethoxy)ethyl]-1-[4-([[2-(2-[2-[(4-[[(1S,2S)-6-chloro-4-methyl-2-(piperazin-1-yl)-2,3-dihydro-1H-inden-1-yl]oxy]-3-fluorobenzene)sulfonamido]ethoxy]ethoxy)ethyl]carbamoyl]amino)butyl]urea; bis(trifluoroacetic acid)] | C (>70%) | C (NHE3 pIC50 > 7)
9 | Cc1cc(S(=O)(=O)N2CC[C@@H](COCCOCCNC(=O)NCCCCNC(=O)NCCOCCOC[C@@H]3CCN(S(=O)(=O)c4ccc(O[C@H]5c6cc(Cl)cc(Cl)c6C[C@@H]5N(C)C)c(C)c4)C3)C2)ccc1O[C@H]1c2cc(Cl)cc(Cl)c2C[C@@H]1N(C)C [Example 45, 3-[2-(2-[[(3R)-1-[(4-[[(1S,2S)-4,6-Dichloro-2-(dimethylamino)-2,3-dihydro-1H-inden-1-yl]oxy]-3-methylbenzene)sulfonyl]pyrrolidin-3-yl]methoxy]ethoxy)ethyl]-1-[4-([[2-(2[[(3R)-1-[(4-[[(1S,2S)-4,6-dichloro-2-(dimethylamino)-2,3-dihydro-1H-inden-1-yl]oxy]-3-methylbenzene)sulfonyl]pyrrolidin-3-yl]methoxy]ethoxy)ethyl]carbamoyl]amino)butyl]urea; bis(trifluoroacetic acid)] | C (>70%) | C (NHE3 pIC50 > 7)
10 | Cc1cc(S(=O)(=O)N2CC[C@@H](COc3ccnc(CNC(=O)NCCCCNC(=O)NCc4cc(OC[C@@H]5CCN(S(=O)(=O)c6ccc(O[C@H]7c8cc(Cl)cc(Cl)c8C[C@@H]7N(C)C)c(C)c6)C5)ccn4)c3)C2)ccc1O[C@H]1c2cc(Cl)cc(Cl)c2C[C@@H]1N(C)C [Example 49, 3-[(4-[[(3R)-1-[(4-[[(1S,2S)-4,6-Dichloro-2-(dimethylamino)-2,3-dihydro-1H-inden-1-yl]oxy]-3-methylbenzene)sulfonyl]pyrrolidin-3-yl]methoxy]pyridin-2-yl)methyl]-1-[4-([[(4-[[(3R)-1-[(4-[[(1S,2S)-4,6-dichloro-2-(dimethylamino)-2,3-dihydro-1H-inden-1-yl]oxy]-3-methylbenzene)sulfonyl]pyrrolidin-3-yl]methoxy]pyridin-2-yl)methyl]carbamoyl]amino)butyl]urea] | C (>70%) | B (NHE3 pIC50 6-7)
